Source: publication PMC5218480 (PLoS ONE, 2017)

System: MV-4-11 cells
Test: Gene expression microarray analysis (Affymetrix PrimeView) and GSEA
Assay type: cell-based, human
Set-up: RFU PODN (11730768_x_at) / Fold change /veh PODN (11730768_x_at) / RFU LINC00158 (11744669_a_at) / Fold change /veh LINC00158 (11744669_a_at) / RFU DUSP10 (11751237_a_at) / Fold change /veh DUSP10 (11751237_a_at) / RFU ID3 (11757404_x_at) / Fold change /veh ID3 (11757404_x_at) / RFU PLEKHG5 (11737974_s_at) / Fold change /veh PLEKHG5 (11737974_s_at) / RFU LRRC4B (11730491_at) / Fold change /veh LRRC4B (11730491_at) / RFU GIMAP4 (11747438_a_at) / Fold change /veh GIMAP4 (11747438_a_at) / RFU KRT8 (11758183_x_at) / Fold change /veh KRT8 (11758183_x_at) / RFU CNN1 (11734310_a_at) / Fold change /veh CNN1 (11734310_a_at) / RFU VPS37D (11726825_at) / Fold change /veh VPS37D (11726825_at) / RFU C10orf10 (11716522_x_at) / Fold change /veh C10orf10 (11716522_x_at) / RFU KIR2DL2 /// KIR2DL4 /// KIR2DL5A /// KIR2DL5B /// KIR2DS1 /// KIR2DS2 /// KIR2DS3 /// KIR2DS4 /// KIR3DL3 /// KIR3DL3 /// KIR3DS1 (11738374_at) / Fold change /veh KIR2DL2 /// KIR2DL4 /// KIR2DL5A /// KIR2DL5B /// KIR2DS1 /// KIR2DS2 /// KIR2DS3 /// KIR2DS4 /// KIR3DL3 /// KIR3DL3 /// KIR3DS1 (11738374_at) / RFU C1QL1 (11718748_at) / Fold change /veh C1QL1 (11718748_at) / RFU TMPRSS4 (11747572_a_at) / Fold change /veh TMPRSS4 (11747572_a_at) / RFU HAMP (11756126_x_at) / Fold change /veh HAMP (11756126_x_at) / RFU RNFT2 (11725882_a_at) / Fold change /veh RNFT2 (11725882_a_at) / RFU NR4A2 (11747474_a_at) / Fold change /veh NR4A2 (11747474_a_at) / RFU ABCC12 (11746883_a_at) / Fold change /veh ABCC12 (11746883_a_at) / RFU TMEM136 (11760407_x_at) / Fold change /veh TMEM136 (11760407_x_at) / RFU CLDN22 /// WWC2 (11732394_at) / Fold change /veh CLDN22 /// WWC2 (11732394_at) / RFU HLA-DPB1 (11760878_x_at) / Fold change /veh HLA-DPB1 (11760878_x_at) / RFU SPINT1 (11716480_a_at) / Fold change /veh SPINT1 (11716480_a_at) / RFU GAP43 (11754022_s_at) / Fold change /veh GAP43 (11754022_s_at) / RFU A4GNT (11735810_at) / Fold change /veh A4GNT (11735810_at) / RFU PRB3 (11715151_x_at) / Fold change /veh PRB3 (11715151_x_at) / RFU TUBB4B (11761932_at) / Fold change /veh TUBB4B (11761932_at) / RFU CAPN14 (11732068_a_at) / Fold change /veh CAPN14 (11732068_a_at) / RFU TMCC2 (11721928_a_at) / Fold change /veh TMCC2 (11721928_a_at) / RFU IRGQ (11745062_a_at) / Fold change /veh IRGQ (11745062_a_at) / RFU FAM174B (11720279_a_at) / Fold change /veh FAM174B (11720279_a_at) / RFU TMPRSS4 (11748680_a_at) / Fold change /veh TMPRSS4 (11748680_a_at) / RFU FAM212B (11763350_a_at) / Fold change /veh FAM212B (11763350_a_at) / RFU PLEKHG5 (11743358_a_at) / Fold change /veh PLEKHG5 (11743358_a_at) / RFU ZSCAN30 (11745921_a_at) / Fold change /veh ZSCAN30 (11745921_a_at) / RFU CMKLR1 (11741424_a_at) / Fold change /veh CMKLR1 (11741424_a_at) / RFU LOC101060620 /// MAPK8IP1 (11723275_at) / Fold change /veh LOC101060620 /// MAPK8IP1 (11723275_at) / RFU SPTSSB (11747773_x_at) / Fold change /veh SPTSSB (11747773_x_at) / RFU PRSS12 (11739890_at) / Fold change /veh PRSS12 (11739890_at) / RFU BIN1 (11741810_x_at) / Fold change /veh BIN1 (11741810_x_at) / RFU WNT11 (11732464_a_at) / Fold change /veh WNT11 (11732464_a_at) / RFU C10orf10 (11716521_a_at) / Fold change /veh C10orf10 (11716521_a_at) / RFU C5orf56 (11738089_at) / Fold change /veh C5orf56 (11738089_at) / RFU CYB561 (11721691_x_at) / Fold change /veh CYB561 (11721691_x_at) / RFU ANKRD19P (11752326_a_at) / Fold change /veh ANKRD19P (11752326_a_at) / RFU OR2T12 /// OR2T33 /// OR2T8 (11738714_s_at) / Fold change /veh OR2T12 /// OR2T33 /// OR2T8 (11738714_s_at) / RFU VCAN (11748164_a_at) / Fold change /veh VCAN (11748164_a_at) / RFU JSRP1 (11732532_at) / Fold change /veh JSRP1 (11732532_at) / RFU KRTAP10-11 (11738290_x_at) / Fold change /veh KRTAP10-11 (11738290_x_at) / RFU MYO3A (11730013_a_at) / Fold change /veh MYO3A (11730013_a_at) / RFU EBF3 (11725865_a_at) / Fold change /veh EBF3 (11725865_a_at) / RFU CAMK2N1 (11719241_x_at) / Fold change /veh CAMK2N1 (11719241_x_at) / RFU C5orf56 (11738088_a_at) / Fold change /veh C5orf56 (11738088_a_at) / RFU OLFML3 (11715873_a_at) / Fold change /veh OLFML3 (11715873_a_at) / RFU LOC100653217 /// NTM (11731650_a_at) / Fold change /veh LOC100653217 /// NTM (11731650_a_at) / RFU MAPK11 (11762145_a_at) / Fold change /veh MAPK11 (11762145_a_at) / RFU FIZ1 (11724087_x_at) / Fold change /veh FIZ1 (11724087_x_at) / RFU OASL (11726364_x_at) / Fold change /veh OASL (11726364_x_at) / RFU SOX15 (11748057_x_at) / Fold change /veh SOX15 (11748057_x_at) / RFU CD79A (11719716_a_at) / Fold change /veh CD79A (11719716_a_at) / RFU HIST1H1D (11736915_at) / Fold change /veh HIST1H1D (11736915_at) / RFU CASKIN2 (11723855_a_at) / Fold change /veh CASKIN2 (11723855_a_at) / RFU LOC730098 (11760151_x_at) / Fold change /veh LOC730098 (11760151_x_at) / RFU OR4N2 (11742367_at) / Fold change /veh OR4N2 (11742367_at) / RFU PRRT2 (11749266_a_at) / Fold change /veh PRRT2 (11749266_a_at) / RFU SNX32 (11753110_a_at) / Fold change /veh SNX32 (11753110_a_at) / RFU CDHR5 (11726645_a_at) / Fold change /veh CDHR5 (11726645_a_at) / RFU RCAN1 (11760418_a_at) / Fold change /veh RCAN1 (11760418_a_at) / RFU FAM167A (11723789_a_at) / Fold change /veh FAM167A (11723789_a_at) / RFU FAM26E (11764081_at) / Fold change /veh FAM26E (11764081_at) / RFU ISYNA1 (11749810_s_at) / Fold change /veh ISYNA1 (11749810_s_at) / RFU ACY1 (11761880_at) / Fold change /veh ACY1 (11761880_at) / RFU 11764098_at / Fold change /veh 11764098_at / RFU SAMD14 (11745864_x_at) / Fold change /veh SAMD14 (11745864_x_at) / RFU NPB (11741838_a_at) / Fold change /veh NPB (11741838_a_at) / RFU TMPRSS6 (11731388_a_at) / Fold change /veh TMPRSS6 (11731388_a_at) / RFU KRTAP10-2 (11738614_at) / Fold change /veh KRTAP10-2 (11738614_at) / RFU ARHGAP8 /// PRR5-ARHGAP8 (11727945_x_at) / Fold change /veh ARHGAP8 /// PRR5-ARHGAP8 (11727945_x_at) / RFU KRTAP5-7 /// NADSYN1 (11734609_at) / Fold change /veh KRTAP5-7 /// NADSYN1 (11734609_at) / RFU RASL12 (11751679_a_at) / Fold change /veh RASL12 (11751679_a_at) / RFU CDKN2B (11736163_a_at) / Fold change /veh CDKN2B (11736163_a_at) / RFU PRF1 (11729649_at) / Fold change /veh PRF1 (11729649_at) / RFU, ZNF638 /// ZNF638-IT1 / Fold change vs veh, ZNF638 /// ZNF638-IT1 / RFU, PANK3 / Fold change vs veh, PANK3 / RFU, SH3YL1 / Fold change vs veh, SH3YL1 / RFU, ZEB2 / Fold change vs veh, ZEB2 / RFU, NRIP1 / Fold change vs veh, NRIP1 / RFU, PTTG1IP / Fold change vs veh, PTTG1IP / RFU, CAPN2 / Fold change vs veh, CAPN2 / RFU, MED14 / Fold change vs veh, MED14 / RFU, SNORA58 / Fold change vs veh, SNORA58 / RFU, C1orf63 / Fold change vs veh, C1orf63 / RFU, LRRFIP1 / Fold change vs veh, LRRFIP1 / RFU, NDUFAF7 / Fold change vs veh, NDUFAF7 / RFU, SLC12A2 / Fold change vs veh, SLC12A2 / RFU, IBTK / Fold change vs veh, IBTK / RFU, ESF1 / Fold change vs veh, ESF1 / Fold change vs veh, TMEM50B / RFU, TAOK1 / Fold change vs veh, TAOK1 / RFU, ACBD3 / Fold change vs veh, ACBD3 / RFU, TMA16 / Fold change vs veh, TMA16 / RFU, RWDD3 / Fold change vs veh, RWDD3 / RFU, BCAT1 / Fold change vs veh, BCAT1 / RFU, EDEM3 / Fold change vs veh, EDEM3 / RFU, TMEM33 / Fold change vs veh, TMEM33 / RFU, WDR75 / Fold change vs veh, WDR75 / RFU, AHCTF1 / Fold change vs veh, AHCTF1 / RFU, TFRC / Fold change vs veh, TFRC / RFU, ZDHHC17 / Fold change vs veh, ZDHHC17 / RFU, NOM1 / Fold change vs veh, NOM1 / RFU, ARL8B / Fold change vs veh, ARL8B / RFU, ZBTB11 / Fold change vs veh, ZBTB11 / RFU, TAMM41 / Fold change vs veh, TAMM41 / RFU, KIAA1704 /// LOC100996395 / Fold change vs veh, KIAA1704 /// LOC100996395 / RFU, ING1 / Fold change vs veh, ING1 / RFU, TRMT61B / Fold change vs veh, TRMT61B / RFU, FUBP3 / Fold change vs veh, FUBP3 / RFU, TP53 / Fold change vs veh, TP53 / RFU, TNKS2 / Fold change vs veh, TNKS2 / RFU, ZFP14 / Fold change vs veh, ZFP14 / RFU, ACTR2 / Fold change vs veh, ACTR2 / RFU, PPP3R1 / Fold change vs veh, PPP3R1 / RFU, PIK3R1 / Fold change vs veh, PIK3R1 / RFU, HNRNPA1 / Fold change vs veh, HNRNPA1 / RFU, RNF170 / Fold change vs veh, RNF170 / RFU, ZNF28 / Fold change vs veh, ZNF28 / RFU, RNGTT / Fold change vs veh, RNGTT / RFU, OGT / Fold change vs veh, OGT / RFU, BRD1 / Fold change vs veh, BRD1 / RFU, MARS / Fold change vs veh, MARS / RFU, ZNF655 / Fold change vs veh, ZNF655 / RFU, FAHD1 / Fold change vs veh, FAHD1 / RFU, BDP1 / Fold change vs veh, BDP1 / RFU, LRRCC1 / Fold change vs veh, LRRCC1 / RFU, ARID1A / Fold change vs veh, ARID1A / RFU, ZNF146 / Fold change vs veh, ZNF146 / RFU, ZNF330 / Fold change vs veh, ZNF330 / RFU, GPN3 / Fold change vs veh, GPN3 / RFU, C9orf123 / Fold change vs veh, C9orf123 / RFU, N4BP2L2 / Fold change vs veh, N4BP2L2 / RFU, ARFIP1 / Fold change vs veh, ARFIP1 / RFU, FAM179B / Fold change vs veh, FAM179B / RFU, BCL10 / Fold change vs veh, BCL10 / RFU, UHRF1BP1L / Fold change vs veh, UHRF1BP1L / RFU, BET1 / Fold change vs veh, BET1 / RFU, CNOT2 / Fold change vs veh, CNOT2 / RFU, ZNF268 / Fold change vs veh, ZNF268 / Fold change vs veh, ZNF507 / RFU, DGCR2 / Fold change vs veh, DGCR2 / RFU, WDSUB1 / Fold change vs veh, WDSUB1 / Fold change vs veh, HSP90B1 /// MIR3652 / RFU, ADSS / Fold change vs veh, ADSS / RFU, GK / Fold change vs veh, GK / RFU, ZNF148 / Fold change vs veh, ZNF148 / RFU, TAF9 / Fold change vs veh, TAF9 / RFU, SLC1A5 / Fold change vs veh, SLC1A5 / RFU, SLMO2 / Fold change vs veh, SLMO2 / RFU, ABCC4 / Fold change vs veh, ABCC4 / RFU, LOC101060439 /// RAP1B / Fold change vs veh, LOC101060439 /// RAP1B / RFU, RFX7 / Fold change vs veh, RFX7 / RFU, GTPBP10 / Fold change vs veh, GTPBP10 / RFU, CNEP1R1 / Fold change vs veh, CNEP1R1 / RFU, BIVM-ERCC5 /// ERCC5 / Fold change vs veh, BIVM-ERCC5 /// ERCC5 / RFU, ILF3 / Fold change vs veh, ILF3 / RFU 11762660_at / Fold change /veh 11762660_at / RFU VCAN (11757783_s_at) / Fold change /veh VCAN (11757783_s_at) / RFU DDX43 (11728927_at) / Fold change /veh DDX43 (11728927_at) / RFU KRT8 (11758188_x_at) / Fold change /veh KRT8 (11758188_x_at) / RFU NKD1 (11759106_at) / Fold change /veh NKD1 (11759106_at) / RFU SRD5A1 (11742802_a_at) / Fold change /veh SRD5A1 (11742802_a_at) / RFU TPSAB1 /// TPSB2 (11721975_s_at) / Fold change /veh TPSAB1 /// TPSB2 (11721975_s_at) / RFU GSTM3 (11746129_a_at) / Fold change /veh GSTM3 (11746129_a_at) / RFU IL23R (11737362_x_at) / Fold change /veh IL23R (11737362_x_at) / RFU TMEM51 (11727254_a_at) / Fold change /veh TMEM51 (11727254_a_at) / RFU PIWIL2 (11732686_x_at) / Fold change /veh PIWIL2 (11732686_x_at) / RFU ORM1 (11744905_x_at) / Fold change /veh ORM1 (11744905_x_at) / RFU CCDC152 (11743942_at) / Fold change /veh CCDC152 (11743942_at) / RFU ECM1 (11717891_a_at) / Fold change /veh ECM1 (11717891_a_at) / RFU IL23R (11748794_a_at) / Fold change /veh IL23R (11748794_a_at) / RFU TNFAIP8L3 (11732012_x_at) / Fold change /veh TNFAIP8L3 (11732012_x_at) / RFU MBOAT4 (11741988_at) / Fold change /veh MBOAT4 (11741988_at) / RFU 11764193_at / Fold change /veh 11764193_at / RFU TMEM53 (11763286_at) / Fold change /veh TMEM53 (11763286_at) / RFU MAGEB2 (11727129_at) / Fold change /veh MAGEB2 (11727129_at) / RFU TMEM200A (11744735_a_at) / Fold change /veh TMEM200A (11744735_a_at) / RFU CCDC152 (11751479_a_at) / Fold change /veh CCDC152 (11751479_a_at) / RFU FAM211A (11726209_a_at) / Fold change /veh FAM211A (11726209_a_at) / RFU RGS16 (11746705_a_at) / Fold change /veh RGS16 (11746705_a_at) / RFU VCAN (11755009_s_at) / Fold change /veh VCAN (11755009_s_at) / RFU RHOB (11743442_s_at) / Fold change /veh RHOB (11743442_s_at) / RFU RGS16 (11720943_a_at) / Fold change /veh RGS16 (11720943_a_at) / RFU RGS16 (11720944_at) / Fold change /veh RGS16 (11720944_at) / RFU, VPS4B / Fold change vs veh, VPS4B / RFU, CREB1 / Fold change vs veh, CREB1 / RFU, DNAJC13 / Fold change vs veh, DNAJC13 / RFU, GNAQ / Fold change vs veh, GNAQ / RFU, CDK5R1 / Fold change vs veh, CDK5R1 / RFU, ZRANB3 / Fold change vs veh, ZRANB3 / RFU, CUL4A / Fold change vs veh, CUL4A / RFU, CCNY / Fold change vs veh, CCNY / RFU, UFL1 / Fold change vs veh, UFL1 / RFU, COG3 / Fold change vs veh, COG3 / RFU, DIAPH2 / Fold change vs veh, DIAPH2 / RFU, SKA2 / Fold change vs veh, SKA2 / RFU, AFF3 / Fold change vs veh, AFF3 / RFU, LMF1 / Fold change vs veh, LMF1 / RFU, IPO11 / Fold change vs veh, IPO11 / RFU, DFFB / Fold change vs veh, DFFB / RFU, FOXP1 / Fold change vs veh, FOXP1 / RFU, CARD8 / Fold change vs veh, CARD8 / RFU, STRN3 / Fold change vs veh, STRN3 / RFU, ADK / Fold change vs veh, ADK / RFU, RASSF2 / Fold change vs veh, RASSF2 / RFU, WIPF1 / Fold change vs veh, WIPF1 / RFU, LARP1B / Fold change vs veh, LARP1B / RFU, RASA1 / Fold change vs veh, RASA1 / RFU, RB1 / Fold change vs veh, RB1 / RFU, PPFIA1 / Fold change vs veh, PPFIA1 / RFU, MAT2A / Fold change vs veh, MAT2A / RFU, CCT5 / Fold change vs veh, CCT5 / RFU, WDR92 / Fold change vs veh, WDR92 / RFU, CUX1 / Fold change vs veh, CUX1 / RFU, TTC7A / Fold change vs veh, TTC7A / RFU, TMEM135 / Fold change vs veh, TMEM135 / RFU, DEPTOR / Fold change vs veh, DEPTOR / RFU, CPM / Fold change vs veh, CPM / RFU, DNAJB6 / Fold change vs veh, DNAJB6 / RFU, CACNA2D3 / Fold change vs veh, CACNA2D3 / RFU, DTX4 / Fold change vs veh, DTX4 / RFU, TFCP2 / Fold change vs veh, TFCP2 / RFU, GMCL1 /// GMCL1P1 / Fold change vs veh, GMCL1 /// GMCL1P1 / RFU, AEBP2 / Fold change vs veh, AEBP2 / RFU, SNHG1 /// SNORD22 /// SNORD25 /// SNORD26 /// SNORD27 /// SNORD28 /// SNORD29 /// SNORD31 / Fold change vs veh, SNHG1 /// SNORD22 /// SNORD25 /// SNORD26 /// SNORD27 /// SNORD28 /// SNORD29 /// SNORD31 / Fold change (Aza/veh), C12orf56 (ProbeSet 11735607_a_at) / Fold change (ACY-1035/veh), C12orf56 (ProbeSet 11735607_a_at) / Fold change (Aza/veh), FGFR1OP (ProbeSet 11751329_s_at) / Fold change (ACY-1035/veh), FGFR1OP (ProbeSet 11751329_s_at) / Fold change (Aza/veh), VPS36 (ProbeSet 11739960_a_at) / Fold change (ACY-1035/veh), VPS36 (ProbeSet 11739960_a_at) / RFU SYPL1 (11715823_x_at) / Fold change /veh SYPL1 (11715823_x_at) / RFU IGFBP7 (11715501_s_at) / Fold change /veh IGFBP7 (11715501_s_at) / RFU REEP3 (11722064_at) / Fold change /veh REEP3 (11722064_at) / RFU IGLL1 (11728026_x_at) / Fold change /veh IGLL1 (11728026_x_at): dose or concentration left out as unconfirmed
Details: ProbeSet 11732154_at; LIST B

Nc1ncn([C@@H]2O[C@H](CO)[C@@H](O)[C@H]2O)c(=O)n1 [azacitidine]
Fold change vs veh, OGT: 0.90
